Results: publication PMC8264504, “Identification of Koumine as a Translocator Protein 18 kDa Positive Allosteric Modulator for the Treatment of Inflammatory and Neuropathic Pain” (Frontiers in Pharmacology, 2021)

Tests used:
[1] = test system: formalin-induced inflammatory pain model; assay: Formalin test; type: in vivo, mice; conditions: for phase one nociceptive response: given alone, s.c.
Procedure: The formalin test was assessed as described by Dubuisson and Dennis ([Dubuisson and Dennis, 1977]) with minor modifications. Briefly, mice were allowed to acclimate for at least 30 min in the transparent plastic box before formalin injection. Each animal was injected with 10 μl of 5% formalin into the dorsal surface of the right hindpaw. Mice were then observed at 0–5 min (phase one) and at 11–60 min (phase two) after formalin, and the amount of time spent licking or biting the injected paw was recorded as the nociceptive response. Ro5-4864 or vehicle (5% DMSO) was administered s. c. 30 min prior to the formalin injection, and koumine was administered s. c. 40 min before formalin injection. To determine whether koumine potentiated the anti-inflammatory pain effects of Ro5-4864, koumine or its vehicle was injected 10 min before Ro5-4864 injection. Ro5-4864 was dissolved in DMSO and diluted in sterile physiological saline, and the final concentration of DMSO was 5%. Koumine was dissolved in sterile physiological saline directly. Animals were randomized for treatment and behavioral test were performed in a blinded manner.

[2] = test system: rat model of CIA; assay: Collagen-induced arthritis (CIA) model, MWT and hind paw volume; type: in vivo
Procedure: The induction of CIA in Lewis rats followed protocols and used reagents supplied by Chondrex. Bovine type II collagen (2 mg/ml in 0.05 M acetic acid) was emulsified with incomplete Freund’s adjuvant (IFA; Sigma-Aldrich) using an electric homogenizer equipped with a small blade. Equal volumes of collagen and IFA were mixed in an ice water bath, and collagen was added dropwise to the IFA at 1,000–3,000 rpm. […] Lewis rats were anesthetized and received 0.2 ml of collagen emulsion by subcutaneous injection at the base of the tail. Booster injections were given on day 7 of the study with 0.1 ml of emulsion. Immunized rats received Ro5-4864, koumine or vehicle for seven consecutive days beginning from day 29 after the first collagen injection. The mechanical withdrawal threshold (MWT) was determined on day 29 and day 35, the hind paw volume was determined on day 35, and was measured 60 min following the MWT measurement. Koumine or vehicle was injected s. c., and MWT values were determined 60 min after koumine injection. Ro5-4864 or vehicle was injected i. p., and MWT was determined 50 min after Ro5-4864 injection. To determine whether koumine potentiated the effects of Ro5-4864, koumine (1.0 mg/kg, s. c.) or vehicle was injected 10 min before Ro5-4864 (0.0625–1.0 mg/kg, i. p.) injection, and the MWT was determined 50 min after the last injection. Animals were randomized for treatment and behavioral test were performed in a blinded manner. Mechanical allodynia and edema measurement were measured using the procedures described below. Only rats with mechanical withdrawal threshold scores (calculated by mechanical withdrawal threshold of immunized rats/mechanical withdrawal threshold of normal rats) on day 28 after the first collagen injection >0.75 were used in the study.
(§1) Mechanical allodynia was measured using a commercially available electronic von Frey apparatus (Model 2,390; IITC Life Science Inc., Woodland Hills, CA) as described by Mitrirattanakul ([Mitrirattanakul et al., 2006]) with minor modifications. Rats were placed in a Plexiglas box on a steel mesh floor, and analyses were performed using an electronic von Frey apparatus. Stimulation was applied to the center of the hind paw in an upward motion of the von Frey filament until foot withdrawal occurred, and the withdrawal threshold was automatically recorded. The maximum strength of the filament used for von Frey testing was 55 g. The procedure was repeated three times at approximately 5 min intervals for each hind paw, and the MWT was calculated as the mean of the three latencies.
Arthritic edema was assessed by measuring the hind paw volume with a plethysmometer (Yi Yan Technology Development Co., Ltd.) according to the manufacturer’s recommendations.

[3] = test system: rat model of CCI; assay: Chronic constriction injury (CCI) model, MWT; type: in vivo
From the text: (§2) The rat CCI model of neuropathic pain was produced according to the method described by Bennett and Xie ([Bennett and Xie, 1988]). Adult male SD rats were anesthetized by isoflurane delivered by using the anesthetic machine. The right common sciatic nerve was isolated at the mid-thigh level and loosely ligated using four chromic gut (4–0) ties separated by intervals of 1 mm. For sham surgeries, the right sciatic nerve was exposed using the same procedure, but the nerve was not ligated. On the 9th day after surgery, Ro5-4864 or vehicle (5% DMSO) was administered i. p. 50 min before the measurement of mechanical allodynia, and koumine was administered s. c. 60 min before the measurement of mechanical allodynia. To determine whether koumine potentiated the analgesic effects of Ro5-4864, koumine (0.28 mg/kg, s. c.) or vehicle was injected 10 min before Ro5-4864 (0.0625–1.0 mg/kg, i. p.) injection on day 9 after CCI surgery, and the MWT was determined 50 min after the last injection. Animals were randomized for treatment and behavioral test were performed in a blinded manner. Mechanical allodynia was measured using the procedures described below. Only rats with mechanical withdrawal threshold scores (calculated by CCI ipsilateral paw mechanical withdrawal threshold/contralateral paw mechanical withdrawal threshold) on day 8 after CCI surgery >0.75 were used in the study.
as §1

[4] = test system: naïve and CCI sham-operated rats; assay: MWT in naïve and CCI sham-operated rats; type: in vivo, rat; conditions: for MWT: given alone
From the text: as §2, with “Animals were randomized for treatment and behavioral test were performed in a blinded manner.” left out
as §1, with “Rats were placed in a Plexiglas box on a steel mesh floor, and analyses were performed using an electronic von Frey apparatus.” left out, “The maximum strength of the filament used for von Frey testing was 55 g.” left out
Figure S5 Modulation of the in vivo efficacy of Ro5-4864 by koumine in the naïve and CCI sham rat model. […] Koumine (0.28 mg/kg) was injected s.c. 9 days after CCI sham surgery, the MWT was determined 60 min after koumine injection. […]

[5] = test system: T98G human glioblastoma cells; assay: Cell proliferation assay (BrdU ELISA); type: cell-based
Procedure: T98G cells were plated at 1 × 10^4 cells/well in 96-well plates. […] After 48 h of drug exposure, proliferation was indexed using a BrdU ELISA Kit (Roche Molecular Diagnostics) according to the manufacturer’s protocol, and absorption was measured at 370 nm (reference wavelength 492 nm).

[6] = acute administration alone on day 29
[7] = given alone daily day 29 to day 35, MWT on day 35

CN1C(=O)CN=C(c2ccc(Cl)cc2)c2cc(Cl)ccc21 [Ro5-4864, reference compound]
phase two nociceptive response ([1]; Ro5-4864 alone 0.00016–0.5 mg/kg s.c. 30 min before formalin): produced a dose-dependent antinociceptive effect
phase one nociceptive response [1]: produced an antinociceptive effect
paw edema (hind paw volume) ([2]; Ro5-4864 alone at the highest dose tested, daily day 29 to day 35 i.p., day 35): significantly inhibited paw edema
mechanical allodynia (MWT) [2, 6]: reduced mechanical allodynia
mechanical allodynia (MWT) [2, 7]: clearly reduced mechanical allodynia
CCI-induced mechanical allodynia (MWT) ([3]; Ro5-4864 alone 0.0625–1.0 mg/kg i.p., 9 days after surgery): inhibited CCI-induced mechanical allodynia in a dose-dependent manner
MWT [4]: Neither Ro5-4864 nor koumine altered the MWT
EC20 concentration, inhibition of cell proliferation ([5]; 48 h, BrdU): ~23 µM
EC50 ([5]; 48 h, BrdU, read-out: EC50, inhibition of cell proliferation): 66 µM

C=C[C@@]12CN(C)[C@H]3C[C@]14C(=Nc1ccccc14)[C@H]1C[C@@H]2[C@@H]3CO1 [koumine]
modulation of Ro5-4864-mediated analgesic effect, phase two ([1]; 0.4 mg/kg koumine s.c. 10 min before 0.00016–0.02 mg/kg Ro5-4864 s.c.): significantly augment
modulation of Ro5-4864-mediated analgesic response, first phase ([1]; 0.4 mg/kg koumine s.c. 10 min before Ro5-4864): did not increase
phase one nociceptive response [1]: ineffective
significant inhibition of second-phase nociceptive response ([1]; koumine alone 0.08 and 0.4 mg/kg s.c.): not
second-phase nociceptive response ([1]; koumine alone 2.0 and 10 mg/kg s.c. 40 min before formalin): significantly inhibited the second-phase nociceptive response
mechanical allodynia (MWT) [2, 6]: dose-dependent inhibition effect
modulation of Ro5-4864 antinociceptive effect (MWT) ([2]; acute coadministration of 1.0 mg/kg koumine s.c. and Ro5-4864 i.p., day 29): clearly augmented the antinociceptive effect
mechanical allodynia (MWT) [2, 7]: clearly reduced mechanical allodynia
modulation of Ro5-4864-mediated anti-edematogenic effect (hind paw volume) ([2]; koumine 1.0 mg/kg s.c. coadministered with Ro5-4864 0.25 mg/kg i.p., successive administration, day 35): notably increased
modulation of Ro5-4864-mediated analgesic effect (MWT) ([2]; koumine 1.0 mg/kg s.c. coadministered with Ro5-4864 0.125–1.0 mg/kg i.p., successive administration, day 35): notably increased
paw edema (hind paw volume) ([2]; koumine alone daily day 29 to day 35 s.c., day 35): did not produce an anti-edematogenic effect
modulation of Ro5-4864-mediated antinociceptive activity (MWT) ([3]; 0.28 mg/kg koumine s.c. 10 min before 0.0625–0.5 mg/kg Ro5-4864 i.p., day 9): significantly augmented
notable antinociceptive effect on CCI-induced mechanical allodynia (MWT) ([3]; koumine alone 0.28 mg/kg s.c., day 9): not
CCI-induced mechanical allodynia (MWT) ([3]; koumine alone 1.4 and 7.0 mg/kg s.c., day 9): notable antinociceptive effects
MWT [4]: Neither Ro5-4864 nor koumine altered the MWT
modulation of antinociceptive effect of Ro5-4864 (MWT) ([4]; koumine 0.28 mg/kg s.c. before Ro5-4864 i.p.): could not significantly augment
shift of PK11195 concentration-response curve ([5]; 316.3 μM koumine): produced a leftward shift in the potency
shift of Ro5-4864 concentration-response curve ([5]; 400 μM koumine): produced a leftward shift in the potency
cell proliferation ([5]; koumine on its own at 1–600 μM): did not affect
modulation of inhibition of proliferation ([5]; koumine with an EC20 concentration of PK11195 (∼75 μM)): significantly increased the inhibition of proliferation
modulation of inhibition of proliferation ([5]; koumine with an EC20 concentration of Ro5-4864 (∼23 μM)): significantly increased the inhibition of proliferation
